Test results: patent publication US11981658B2, “Substituted aminopyridine compounds as EGFR inhibitors” (YUHAN CORPORATION, priority 2021, dated 2024)
Read-outs that look alike come from different tables or passages of the source.

Experiments:
EGFR Del19/T790M/C797S = EGFR Del19/T790M/C797S (Homo sapiens, UniProt P00533, C797S/DEL746-750/T790M); test: Biochemical EGFR kinase inhibition assay (Lance Ultra TR-FRET), triple mutant del19/T790M/C797S
Outline: (§1)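 Kinase activity is measured by TR-FRET phosphopeptide detection. Compounds span 0.003 μM to 10 μM; the 1 h reaction at room temperature is quenched with EDTA, then labelled antibody (2 nM) is incubated 60 min before reading.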

EGFR L858R/T790M/C797S = EGFR L858R/T790M/C797S (Homo sapiens, UniProt P00533, C797S/L858R/T790M); test: Biochemical EGFR kinase inhibition assay (Lance Ultra TR-FRET), triple mutant L858R/T790M/C797S
Outline: as §1

EGFR Del19/C797S = EGFR Del19/C797S (Homo sapiens, UniProt P00533, C797S/DEL746-750); test: Biochemical EGFR kinase inhibition assay (Lance Ultra TR-FRET), double mutant del19/C797S
Outline: as §1

EGFR L858R/C797S = EGFR L858R/C797S (Homo sapiens, UniProt P00533, C797S/L858R); test: Biochemical EGFR kinase inhibition assay (Lance Ultra TR-FRET), double mutant L858R/C797S
Outline: as §1

EGFR wildtype (WT) = EGFR wildtype (WT) (Homo sapiens, UniProt P00533); test: Biochemical EGFR kinase inhibition assay (Lance Ultra TR-FRET), wildtype
Outline: as §1

[1] = ATP at Km, read-out: IC50 Del19/T790M/C797S (nM), Km ATP
[2] = IC50 Del19/T790M/C797S (nM), 100 μM ATP
[3] = ATP at Km, read-out: IC50 L858R/T790M/C797S (nM), Km ATP
[4] = IC50 L858R/T790M/C797S (nM), 100 μM ATP
[5] = ATP at Km, read-out: IC50 Del19/C797S (nM), Km ATP
[6] = IC50 Del19/C797S (nM), 100 μM ATP
[7] = ATP at Km, read-out: IC50 L858R/C797S (nM), Km ATP
[8] = IC50 L858R/C797S (nM), 100 μM ATP
[9] = ATP at Km, read-out: IC50 WT (nM), Km ATP
[10] = Km ATP, read-out: IC50 Del19/T790M/C797S (nM) Km ATP
[11] = Km ATP, read-out: IC50 L858R/T790M/C797S (nM) Km ATP
[12] = Km ATP, read-out: IC50 Del19/C797S (nM) Km ATP
[13] = Km ATP, read-out: IC50 L858R/C797S (nM) Km ATP
[14] = Km ATP, read-out: IC50 WT (nM) Km ATP

Sequence of EGFR Del19/C797S (P00533 with tags, fused parts or gaps DEL746-750/C797S): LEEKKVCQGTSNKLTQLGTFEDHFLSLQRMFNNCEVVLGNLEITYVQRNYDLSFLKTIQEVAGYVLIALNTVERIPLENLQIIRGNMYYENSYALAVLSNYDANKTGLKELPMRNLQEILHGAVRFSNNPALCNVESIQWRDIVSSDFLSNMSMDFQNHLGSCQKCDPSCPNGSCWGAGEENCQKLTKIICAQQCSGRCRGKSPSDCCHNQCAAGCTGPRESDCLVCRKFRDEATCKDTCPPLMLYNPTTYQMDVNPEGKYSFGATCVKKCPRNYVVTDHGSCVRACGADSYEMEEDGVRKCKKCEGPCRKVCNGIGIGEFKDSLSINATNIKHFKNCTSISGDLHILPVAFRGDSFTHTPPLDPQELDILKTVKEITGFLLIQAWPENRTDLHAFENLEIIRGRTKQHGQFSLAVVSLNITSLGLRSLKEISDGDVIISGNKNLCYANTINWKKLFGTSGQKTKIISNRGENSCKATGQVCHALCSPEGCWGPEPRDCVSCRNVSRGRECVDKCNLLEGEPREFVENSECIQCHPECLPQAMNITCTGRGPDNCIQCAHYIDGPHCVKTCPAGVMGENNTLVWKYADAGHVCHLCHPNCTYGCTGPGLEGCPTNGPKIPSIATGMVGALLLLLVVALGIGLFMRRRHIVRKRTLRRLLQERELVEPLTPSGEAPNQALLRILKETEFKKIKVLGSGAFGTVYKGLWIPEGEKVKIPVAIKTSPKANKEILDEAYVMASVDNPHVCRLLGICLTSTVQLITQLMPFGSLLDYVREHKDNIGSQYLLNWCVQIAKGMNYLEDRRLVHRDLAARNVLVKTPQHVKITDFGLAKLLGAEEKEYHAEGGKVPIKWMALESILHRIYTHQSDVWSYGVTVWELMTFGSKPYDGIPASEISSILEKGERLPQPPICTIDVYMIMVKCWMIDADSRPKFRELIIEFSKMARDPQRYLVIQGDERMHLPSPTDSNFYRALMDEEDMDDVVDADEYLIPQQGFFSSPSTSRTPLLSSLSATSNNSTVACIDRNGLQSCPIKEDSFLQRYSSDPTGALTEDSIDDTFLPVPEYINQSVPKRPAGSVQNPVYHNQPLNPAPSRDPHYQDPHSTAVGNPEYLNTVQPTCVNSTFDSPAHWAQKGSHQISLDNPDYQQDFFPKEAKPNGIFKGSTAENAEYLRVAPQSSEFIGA
Sequence of EGFR wildtype (WT) (P00533 25-1210): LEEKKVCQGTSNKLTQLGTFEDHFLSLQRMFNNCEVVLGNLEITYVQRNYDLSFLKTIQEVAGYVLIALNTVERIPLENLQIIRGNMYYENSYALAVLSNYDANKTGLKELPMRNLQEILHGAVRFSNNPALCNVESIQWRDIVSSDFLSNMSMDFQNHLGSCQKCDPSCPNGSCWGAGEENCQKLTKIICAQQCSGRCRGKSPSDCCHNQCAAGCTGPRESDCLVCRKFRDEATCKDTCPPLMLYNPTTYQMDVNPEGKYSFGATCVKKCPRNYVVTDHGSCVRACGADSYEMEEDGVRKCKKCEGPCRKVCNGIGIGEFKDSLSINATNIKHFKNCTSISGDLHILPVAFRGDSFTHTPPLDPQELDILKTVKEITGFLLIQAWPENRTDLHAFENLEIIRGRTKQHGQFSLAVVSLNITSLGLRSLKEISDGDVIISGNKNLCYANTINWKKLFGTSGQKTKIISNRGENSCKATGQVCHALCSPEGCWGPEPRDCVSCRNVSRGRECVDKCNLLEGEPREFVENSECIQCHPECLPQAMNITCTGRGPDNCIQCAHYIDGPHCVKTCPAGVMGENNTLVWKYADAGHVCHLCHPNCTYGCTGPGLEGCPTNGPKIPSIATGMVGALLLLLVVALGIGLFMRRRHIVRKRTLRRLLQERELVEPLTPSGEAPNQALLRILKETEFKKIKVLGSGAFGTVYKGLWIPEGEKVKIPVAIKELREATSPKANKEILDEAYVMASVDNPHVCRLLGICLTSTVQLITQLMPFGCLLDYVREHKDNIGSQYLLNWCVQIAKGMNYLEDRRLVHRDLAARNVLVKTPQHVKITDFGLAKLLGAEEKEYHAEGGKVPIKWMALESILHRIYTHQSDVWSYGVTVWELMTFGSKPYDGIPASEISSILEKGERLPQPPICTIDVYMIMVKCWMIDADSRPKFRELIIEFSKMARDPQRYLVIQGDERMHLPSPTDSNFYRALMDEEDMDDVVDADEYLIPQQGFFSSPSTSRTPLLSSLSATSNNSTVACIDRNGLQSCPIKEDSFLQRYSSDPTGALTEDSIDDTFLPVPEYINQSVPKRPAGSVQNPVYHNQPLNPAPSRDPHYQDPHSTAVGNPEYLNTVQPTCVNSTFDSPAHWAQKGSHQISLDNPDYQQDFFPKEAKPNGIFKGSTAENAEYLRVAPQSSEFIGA
Sequence of EGFR L858R/T790M/C797S (P00533 25-1210 T790M/C797S/L858R): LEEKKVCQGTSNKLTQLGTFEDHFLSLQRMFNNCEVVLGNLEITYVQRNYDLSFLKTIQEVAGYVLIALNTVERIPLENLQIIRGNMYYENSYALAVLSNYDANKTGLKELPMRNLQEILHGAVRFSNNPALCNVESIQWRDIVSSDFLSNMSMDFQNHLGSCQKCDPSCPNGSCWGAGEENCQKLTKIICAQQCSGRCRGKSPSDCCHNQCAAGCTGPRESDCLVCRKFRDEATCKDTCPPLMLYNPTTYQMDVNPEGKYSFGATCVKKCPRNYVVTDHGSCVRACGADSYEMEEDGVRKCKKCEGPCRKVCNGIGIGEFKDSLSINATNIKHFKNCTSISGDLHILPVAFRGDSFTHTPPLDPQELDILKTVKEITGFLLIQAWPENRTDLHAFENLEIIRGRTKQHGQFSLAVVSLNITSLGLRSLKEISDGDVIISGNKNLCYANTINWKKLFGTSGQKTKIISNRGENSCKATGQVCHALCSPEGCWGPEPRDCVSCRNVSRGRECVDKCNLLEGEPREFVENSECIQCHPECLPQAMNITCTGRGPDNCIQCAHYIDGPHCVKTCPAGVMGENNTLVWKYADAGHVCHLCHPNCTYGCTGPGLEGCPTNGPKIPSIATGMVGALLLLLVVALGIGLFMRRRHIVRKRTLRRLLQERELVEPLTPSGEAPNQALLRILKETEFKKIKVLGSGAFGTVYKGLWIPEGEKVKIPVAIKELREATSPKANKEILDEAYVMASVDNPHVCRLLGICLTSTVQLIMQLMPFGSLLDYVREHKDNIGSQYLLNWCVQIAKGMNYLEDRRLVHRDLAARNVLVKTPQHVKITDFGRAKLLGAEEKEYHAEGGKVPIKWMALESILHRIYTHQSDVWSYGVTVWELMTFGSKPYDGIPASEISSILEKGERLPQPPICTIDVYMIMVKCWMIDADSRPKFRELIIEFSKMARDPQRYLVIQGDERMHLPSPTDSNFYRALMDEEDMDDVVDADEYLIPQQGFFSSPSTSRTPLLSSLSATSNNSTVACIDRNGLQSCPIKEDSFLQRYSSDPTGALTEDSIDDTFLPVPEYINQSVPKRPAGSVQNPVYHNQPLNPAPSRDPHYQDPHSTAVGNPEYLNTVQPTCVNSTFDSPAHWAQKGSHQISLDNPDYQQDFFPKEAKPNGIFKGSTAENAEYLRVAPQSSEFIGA
Sequence of EGFR Del19/T790M/C797S (P00533 with tags, fused parts or gaps DEL746-750/T790M/C797S): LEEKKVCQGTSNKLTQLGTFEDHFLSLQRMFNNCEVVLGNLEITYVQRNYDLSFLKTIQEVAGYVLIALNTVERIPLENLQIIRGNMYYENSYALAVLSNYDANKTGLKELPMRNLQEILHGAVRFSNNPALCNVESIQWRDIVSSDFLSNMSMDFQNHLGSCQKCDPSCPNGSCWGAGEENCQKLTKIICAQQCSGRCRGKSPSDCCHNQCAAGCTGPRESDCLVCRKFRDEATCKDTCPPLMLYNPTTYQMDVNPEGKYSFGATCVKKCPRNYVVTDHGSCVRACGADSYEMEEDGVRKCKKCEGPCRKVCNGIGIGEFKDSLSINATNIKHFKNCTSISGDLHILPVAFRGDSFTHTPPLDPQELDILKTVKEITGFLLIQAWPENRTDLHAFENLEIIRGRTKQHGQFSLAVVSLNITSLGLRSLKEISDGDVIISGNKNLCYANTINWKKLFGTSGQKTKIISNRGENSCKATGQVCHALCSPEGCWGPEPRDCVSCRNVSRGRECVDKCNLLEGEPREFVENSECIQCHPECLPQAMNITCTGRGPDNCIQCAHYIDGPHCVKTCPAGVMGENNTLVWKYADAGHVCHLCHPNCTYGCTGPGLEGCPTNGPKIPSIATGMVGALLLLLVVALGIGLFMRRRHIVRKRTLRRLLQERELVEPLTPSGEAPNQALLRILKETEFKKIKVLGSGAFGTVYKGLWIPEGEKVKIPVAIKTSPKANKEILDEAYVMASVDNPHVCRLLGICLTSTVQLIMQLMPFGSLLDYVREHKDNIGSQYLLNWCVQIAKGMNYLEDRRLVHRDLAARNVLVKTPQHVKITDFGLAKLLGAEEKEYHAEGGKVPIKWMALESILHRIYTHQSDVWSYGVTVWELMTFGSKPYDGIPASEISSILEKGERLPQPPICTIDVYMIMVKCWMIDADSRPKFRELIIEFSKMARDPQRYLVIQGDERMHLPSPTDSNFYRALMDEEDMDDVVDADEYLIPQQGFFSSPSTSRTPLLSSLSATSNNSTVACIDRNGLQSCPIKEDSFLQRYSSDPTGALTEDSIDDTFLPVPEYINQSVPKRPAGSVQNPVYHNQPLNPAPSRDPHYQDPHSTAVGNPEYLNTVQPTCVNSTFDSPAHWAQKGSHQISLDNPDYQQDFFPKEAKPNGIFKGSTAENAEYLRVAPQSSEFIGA

IC50 (EGFR Del19/T790M/C797S; [1]) [nM] | IC50 (EGFR Del19/T790M/C797S; [2]) [nM] | IC50 (EGFR L858R/T790M/C797S; [3]) [nM] | IC50 (EGFR L858R/T790M/C797S; [4]) [nM] | IC50 (EGFR Del19/C797S; [5]) [nM] | IC50 (EGFR Del19/C797S; [6]) [nM] | IC50 (EGFR L858R/C797S; [7]) [nM] | IC50 (EGFR L858R/C797S; [8]) [nM] | IC50 (EGFR wildtype (WT); [9]) [nM] | IC50 (EGFR wildtype (WT); IC50 WT (nM), 100 μM ATP) [nM] | IC50 (EGFR Del19/T790M/C797S; [10]) [nM] | IC50 (EGFR L858R/T790M/C797S; [11]) [nM] | IC50 (EGFR Del19/C797S; [12]) [nM] | IC50 (EGFR L858R/C797S; [13]) [nM] | IC50 (EGFR wildtype (WT); [14]) [nM] | SMILES
0.9 | 0.5 | 1.2 | 0.8 | 1.6 | 0.9 | 2 | 8.2 | 3.9 | 932 |  |  |  |  |  | CC1(CO)CCN(c2cc(Nc3ccnc(-c4cnn(S(=O)(=O)C5CC5)c4)n3)ncc2C#Cc2ccc(CN3CCOCC3)nc2)CC1 [Example 187, (1-(2-((2-(1-(Cyclopropylsulfonyl)-1H-pyrazol-4-yl)pyrimidin-4-yl)amino)-5-((6-(morpholinomethyl)pyridin-3-yl)ethynyl)pyridin-4-yl)-4-methylpiperidin-4-yl)methanol]
0.4 | 1.2 | 0.2 | 1.1 | 0.5 | 0.8 | 0.9 | 6.8 | 1.7 | > 10000 |  |  |  |  |  | CC1(CO)CCN(c2cc(Nc3ccnc(-c4cnn(S(=O)(=O)C5CC5)c4)n3)ncc2C#Cc2ccc(CN3CCOCC3)cn2)CC1 [Example 185, (1-(2-((2-(1-(Cyclopropylsulfonyl)-1H-pyrazol-4-yl)pyrimidin-4-yl)amino)-5-((5-(morpholinomethyl)pyridin-2-yl)ethynyl)pyridin-4-yl)-4-methylpiperidin-4-yl)methanol]
0.7 | 0.7 | 0.4 | 0.9 | 2 | 2.8 | 6.6 | 74.7 | 15 | > 10000 |  |  |  |  |  | CC1(CO)CCN(c2cc(Nc3ccnc(-c4cnn(S(=O)(=O)C5CC5)c4)n3)ncc2C#CC2CC2)CC1 [Example 250, (1-(5-(Cyclopropylethynyl)-2-((2-(1-(cyclopropylsulfonyl)-1H-pyrazol-4-yl)pyrimidin-4-yl)amino)pyridin-4-yl)-4-methylpiperidin-4-yl)methanol]
 | 2.8 |  | 13.9 |  | 81.4 |  | 954 |  | > 10000 |  |  |  |  |  | CC1(C#Cc2cnc(Nc3ccnc(-c4cnn(S(=O)(=O)C5CC5)c4)n3)cc2N[C@H]2CC[C@@H](O)CC2)COC1 [Example 350, (1s,4s)-4-((2-((2-(1-(Cyclopropylsulfonyl)-1H-pyrazol-4-yl)pyrimidin-4-yl)amino)-5-((3-methyloxetan-3-yl)ethynyl)pyridin-4-yl)amino)cyclohexan-1-ol]
 | 1.1 |  | 1.1 |  | 5.1 |  | 43.4 |  | > 10000 |  |  |  |  |  | CN1CCN(C2CCN(c3cc(Nc4ccnc(-c5cnn(S(=O)(=O)C6CC6)c5)n4)ncc3C#Cc3ccsc3)CC2)CC1 [Example 226, 2-(1-(Cyclopropylsulfonyl)-1H-pyrazol-4-yl)-N-(4-(4-(4-methylpiperazin-1-yl)piperidin-1-yl)-5-(thiophen-3-ylethynyl)pyridin-2-yl)pyrimidin-4-amine]
0.8 | 1.4 | 0.5 | 1.3 | 0.6 | 0.5 | 1.1 | 2.8 | 6.7 | 474 |  |  |  |  |  | CC1(CO)CCN(c2cc(Nc3ccnc(-c4cnn(S(=O)(=O)C5CC5)c4)n3)ncc2C#Cc2cnn(C3COC3)c2)CC1 [Example 245, (1-(2-((2-(1-(Cyclopropylsulfonyl)-1H-pyrazol-4-yl)pyrimidin-4-yl)amino)-5-((1-(oxetan-3-yl)-1H-pyrazol-4-yl)ethynyl)pyridin-4-yl)-4-methylpiperidin-4-yl)methanol]

Further lines, the compound ahead of its results:

SMILES | IC50 (EGFR Del19/T790M/C797S; [1]) [nM] | IC50 (EGFR Del19/T790M/C797S; [2]) [nM] | IC50 (EGFR L858R/T790M/C797S; [3]) [nM] | IC50 (EGFR L858R/T790M/C797S; [4]) [nM] | IC50 (EGFR Del19/C797S; [5]) [nM] | IC50 (EGFR Del19/C797S; [6]) [nM] | IC50 (EGFR L858R/C797S; [7]) [nM] | IC50 (EGFR L858R/C797S; [8]) [nM] | IC50 (EGFR wildtype (WT); [9]) [nM] | IC50 (EGFR wildtype (WT); IC50 WT (nM), 100 μM ATP) [nM] | IC50 (EGFR Del19/T790M/C797S; [10]) [nM] | IC50 (EGFR L858R/T790M/C797S; [11]) [nM] | IC50 (EGFR Del19/C797S; [12]) [nM] | IC50 (EGFR L858R/C797S; [13]) [nM] | IC50 (EGFR wildtype (WT); [14]) [nM]
CCc1cnc(C#Cc2cnc(Nc3ccnc(-c4cnn(S(=O)(=O)C5CC5)c4)n3)cc2N[C@@H]2CCC[C@H](O)C2)s1 [Example 168, (1S,3R)-3-((2-((2-(1-(Cyclopropylsulfonyl)-1H-pyrazol-4-yl)pyrimidin-4-yl)amino)-5-((5-ethylthiazol-2-yl)ethynyl)pyridin-4-yl)amino)cyclohexan-1-ol] | 11 | 11.8 | 9.1 | 71.2 | 67.9 | 391 | 784 | 8370 | 6250 | > 10000 |  |  |  |  | 
CC1(CO)CCN(c2cc(Nc3ccnc(-c4cnn(S(=O)(=O)C5CC5)c4)n3)ncc2C#Cc2cnn3c2CN(CC(F)F)CC3)CC1 [Example 151, (1-(2-((2-(1-(Cyclopropylsulfonyl)-1H-pyrazol-4-yl)pyrimidin-4-yl)amino)-5-((5-(2,2-difluoroethyl)-4,5,6,7-tetrahydropyrazolo[1,5-a]pyrazin-3-yl)ethynyl)pyridin-4-yl)-4-methylpiperidin-4-yl)methanol] | 2.4 | 2.6 | 1.1 | 3 | 4.2 | 3.5 | 8.6 | 57.8 | 29.4 | > 10000 |  |  |  |  | 
CC1(CO)CCN(c2cc(Nc3ccnc(-c4cnn(S(=O)(=O)C5CC5)c4)n3)ncc2C#Cc2cnn(C3CC3)c2)CC1 [Example 47, (1-(5-((1-Cyclopropyl-1H-pyrazol-4-yl)ethynyl)-2-((2-(1-(cyclopropylsulfonyl)-1H-pyrazol-4-yl)pyrimidin-4-yl)amino)pyridin-4-yl)-4-methylpiperidin-4-yl)methanol] |  | 2.8 |  | 3.5 |  | 1.6 |  | 7.8 |  | 1740 | 2.1 | 1.4 | 2.6 | 3.3 | 19.6
Cn1cc(C#Cc2cnc(Nc3ccnc(-c4cnn(S(=O)(=O)C5CC5)c4)n3)cc2N2CCCC(CO)C2)cn1 (centres unmarked) [Example 9, (1-(2-((2-(1-(Cyclopropylsulfonyl)-1H-pyrazol-4-yl)pyrimidin-4-yl)amino)-5-((1-methyl-1H-pyrazol-4-yl)ethynyl)pyridin-4-yl)piperidin-3-yl)methanol] |  | 1.9 |  | 1.1 |  | 3.8 |  | 27.5 |  | > 10000 | 0.7 | 0.4 | 2.8 | 2.2 | 52.8
CN(C)CCCn1cc(C#Cc2cnc(Nc3ccnc(-c4cnn(S(=O)(=O)C5CC5)c4)n3)cc2N2CCCC(CO)C2)cn1 (centres unmarked) [Example 122, (1-(2-((2-(1-(Cyclopropylsulfonyl)-1H-pyrazol-4-yl)pyrimidin-4-yl)amino)-5-((1-(3-(dimethylamino)propyl)-1H-pyrazol-4-yl)ethynyl)pyridin-4-yl)piperidin-3-yl)methanol] |  | 0.5 |  | 0.5 |  | 0.8 |  | 11.8 |  | 2780 | 0.4 | 0.2 | 0.6 | 0.5 | 7.8
Cn1cc(C#Cc2cnc(Nc3ccnc(-c4cnn(S(=O)(=O)C5CC5)c4)n3)cc2N2CCC3(CCNC3)CC2)cn1 [Example 156, 2-(1-(Cyclopropylsulfonyl)-1H-pyrazol-4-yl)-N-(5-((1-methyl-1H-pyrazol-4-yl)ethynyl)-4-(2,8-diazaspiro[4.5]decan-8-yl)pyridin-2-yl)pyrimidin-4-amine] | 0.1 | 0.1 | 0.04 | 0.1 | 0.3 | 0.4 | 1.2 | 9 | 2.6 | 2100 |  |  |  |  | 
